According to patent publication US20250262222A1, “HETEROCYCLIC COMPOUNDS, COMPOSITIONS THEREOF, AND METHODS OF TREATMENT THEREWITH” (BeiGene Switzerland GmbH, priority 2022, published 2025):

Columns and labels:
[1] = test system: pERK1/2(THR202/TYR204) level in AsPC-1 cell line; test: KRAS G12D pERK assay; assay type: cell-based; conditions: Homo sapiens, ASPC1, 2 h, AsPC-1 cells, 2 h compound treatment, HTRF
Method in brief: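 AsPC-1 (KRAS G12D) cells, 30000/well, seeded overnight, then treated 2 h with a 10-point series at 0 to 10 μM final. Lysate pERK1/2 (Thr202/Tyr204) detected by HTRF after overnight antibody incubation at room temperature; IC50 from percent inhibition versus log concentration.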

[2] = test system: ERK1/2 phosphorylation in SW1990 tumors; test: SW1990 PD studies; assay type: in vivo, Female NCG mice; conditions: oral administration
Method: Female NCG mice were subcutaneously implanted with 5×10^6 SW1990 cells per 200 μL PBS/matrigel in the right flank. After inoculation, when tumors reached a mean volume of approximately 350-450 mm^3 in size, mice were randomized into treatment groups. Randomized mice would receive a single dose of vehicle consisting of 0.5% MC or test compounds at various dose (e.g. 30, 50, or 100 mg/kg) by oral administration. Plasma was collected at 0.5, 2, 4, and 7 hours, and tumor was collected at 7 hours after dosing to determine exposure levels. Tumor fragments were snap frozen in homogenization tubes with liquid nitrogen and homogenized with T-PER Tissue Protein Extraction Buffer with protease and phosphatase inhibitors added fresh before use. Tumor lysates were then analyzed for ERK1/2 phosphorylation.

[3] = test system: pERK1/2(THR202/TYR204) level in SW620 cell line; test: KRAS G12V pERK assay; assay type: cell-based; conditions: Homo sapiens, SW-620; SW620 cells, 2 hrs compound treatment, HTRF
Method: SW620 cell line was used in this study. Cells were maintained in RPMI 1640 supplemented with 10% fetal bovine serum (Thermo Fisher), 50 units/mL penicillin and streptomycin (Thermo Fisher) and kept at 37° C. in a humidified atmosphere of 5% CO2 in air. Cells were reinstated from frozen stocks that were laid down within 30 passages from the original cells purchased. 40000 cells per well were seeded into a 96-well plate and incubated overnight. Cells were treated with a 10-point dilution series. The final compound concentration is from 0 to 10 μM. After 2 hrs compound treatment, cells were lysed, and the pERK1/2(THR202/TYR204) level in the cell lysates was detected by HTRF kit (Cisbio). In brief, a total of 16 μL of cell lysate from each well of a 96-well plate was transferred to a 384-well white assay plate. Lysate from each well was incubated with 2 μL of Eu3+-cryptate (donor) labeled anti-phospho-ERK1/2 and 2 μL of D2 (acceptor) labeled anti-phospho-ERK1/2 antibodies (Cisbio) overnight in dark at room temperature. When donor and acceptor are in close proximity, excitation of the donor with laser triggers a Fluorescence Resonance Energy Transfer (FRET) towards the acceptor, which in turn fluoresces at 655 nm wavelength. FRET signals were measured using a PHERAstar FSX reader (BMG Labtech). IC50 determination was performed by fitting the curve of percent inhibition versus the log of the inhibitor concentration using Dotmatics.

Row | IC50 [3] | SMILES | IC50 [1] | oral pharmacodynamic effects [2]
1 | – | Cc1cc(N)cc(-c2nc3c4c(nc(OCC56COC(C5)C6)nc4c2F)N2C[C@H]4CC[C@H](N4)[C@H]2CCO3)c1C(F)(F)F [Example 27, 3-((6aR,7S,10R)-13-((2-oxabicyclo[2.1.1]hexan-4-yl)methoxy)-1-fluoro-5,6,6a,7,8,9,10,11-octahydro-4-oxa-3,11a,12,14,15-pentaaza-7,10-methanocyclohepta[4,5]cyclo-octa[1,2,3-de]naphthalen-2-yl)-5-methyl-4-(trifluoromethyl)aniline] | 203 nM | enhanced oral pharmacodynamic effects
2 | – | Nc1cc(Cl)c(C(F)(F)F)c(-c2nc3c4c(nc(OCC56COC(C(F)F)(C5)C6)nc4c2F)N2C[C@H]4CC[C@H](N4)[C@H]2CCO3)c1 [Example 35, 3-chloro-5-((6aR,7S,10R)-13-((1-(difluoromethyl)-2-oxabicyclo[2.1.1]hexan-4-yl)methoxy)-1-fluoro-5,6,6a,7,8,9,10,11-octahydro-4-oxa-3,11a,12,14,15-pentaaza-7,10-methanocyclohepta[4,5]cyclo-octa[1,2,3-de]naphthalen-2-yl)-4-(trifluoromethyl)aniline] | 61 nM | enhanced oral pharmacodynamic effects
3 | – | Nc1cc(Cl)c(C(F)(F)F)c(-c2nc3c4c(nc(OCC56CCC(CC5)OC6)nc4c2F)N2C[C@H]4CC[C@H](N4)[C@H]2CCO3)c1 [Example 40, 3-((6aR,7S,10R)-13-((2-oxabicyclo[2.2.2]octan-4-yl)methoxy)-1-fluoro-5,6,6a,7,8,9,10,11-octahydro-4-oxa-3,11a,12,14,15-pentaaza-7,10-methanocyclohepta[4,5]cyclo-octa[1,2,3-de]naphthalen-2-yl)-5-chloro-4-(trifluoromethyl)aniline] | 303 nM | enhanced oral pharmacodynamic effects
4 | 13 nM | C#Cc1c(F)ccc2cc(O)cc(-c3nc4c5c(nc(OC[C@@]67CCCN6C[C@H](F)C7)nc5c3F)N3CCOCCC3CO4)c12 (stereo partly drawn) [Example 22, 5-ethynyl-6-fluoro-4-(1-fluoro-12-(((2R,7aS)-2-fluorotetrahydro-1H-pyrrolizin-7a(5H)-yl)methoxy)-5,5a,6,7,9,10-hexahydro-4,8-dioxa-3,10a,11,13-tetraazanaphtho[1,8-ab]heptalen-2-yl)naphthalen-2-ol] | – | –
5 | 72 nM | C#Cc1c(F)ccc2cc(O)cc(-c3nc4c5c(nc(OC[C@@H]6C[C@@H](F)CN6C)nc5c3F)N3CCOC[C@H]3CO4)c12 [Example 7, 5-ethynyl-6-fluoro-4-((S)-1-fluoro-11-(((2S,4R)-4-fluoro-1-methylpyrrolidin-2-yl)methoxy)-5a,6,8,9-tetrahydro-5H-4,7-dioxa-3,9a,10,12-tetraazabenzo[4,5]cyclohepta[1,2,3-de]naphthalen-2-yl)naphthalen-2-ol] | – | –
6 | 6.7 nM | C#Cc1c(F)ccc2cc(O)cc(-c3nc4c5c(nc(OC[C@@]67CCCN6C[C@H](F)C7)nc5c3F)N3CCOC[C@H]3CO4)c12 [Example 4, 5-ethynyl-6-fluoro-4-((S)-1-fluoro-11-(((2R,7aS)-2-fluorotetrahydro-1H-pyrrolizin-7a(5H)-yl)methoxy)-5a,6,8,9-tetrahydro-5H-4,7-dioxa-3,9a,10,12-tetraazabenzo[4,5]cyclohepta[1,2,3-de]naphthalen-2-yl)naphthalen-2-ol] | 76 nM | –
7 | 24 nM | Nc1cc(Cl)c(C(F)(F)F)c(-c2nc3c4c(nc(OC[C@@]56CCCN5C[C@H](F)C6)nc4c2F)N2CCOC[C@@H]2CCO3)c1 [Example 16, 3-chloro-5-((S)-1-fluoro-12-(((2R,7aS)-2-fluorotetrahydro-1H-pyrrolizin-7a(5H)-yl)methoxy)-5,6,6a,7,9,10-hexahydro-4,8-dioxa-3,10a,11,13-tetraazabenzo[4,5]cycloocta[1,2,3-de]naphthalen-2-yl)-4-(trifluoromethyl)aniline] | – | –
